Data on three compounds can be found in patent US12275731B2, “Azaindole inhibitors of wild-type and mutant forms of LRRK2” (DANA-FARBER CANCER INSTITUTE, INC., priority 2018, dated 2025).

What all share (experiment): KinomeScan profiling
Format in all cases: binding

In experiment [1] the target is NEK6 (Homo sapiens, UniProt Q9HC98). The settings on record: NEK6, 1 μM; read-out: % control. The procedure:
(§1) The kinase selectivity of inventive compounds 77, 96 and 101 was evaluated by KinomeScan®. KinomeScan® analysis was performed against a near comprehensive panel of 468 kinases. The control percentage (% control) for inventive compounds at 1 μM in DMSO was determined by Equation 1: % control=(inventive compound−positive control)/(negative control−positive control)×100%, Equation 1
(§2) wherein the positive control is a compound with a % control value of 0% relative light units (RLU), and the negative control (i.e., DMSO) has % control value of 100% RLU. The enzyme selectivity in the present invention is defined as follows: inventive compounds are considered active for an enzyme when the observed % control is less than 35% (<35%).

Experiment [2] has as its target T1, RSK2(Kin.Dom.2-C-terminal) (Homo sapiens, UniProt P51812).
T1 construct: RSK2(Kin.Dom.2-C-terminal)
The settings on record: read-out: % control. The procedure: as §1, §2

Experiment [3] deals with T2, MAP4K3 (Homo sapiens, UniProt Q8IVH8).
T2 sequence (Q8IVH8 1-894): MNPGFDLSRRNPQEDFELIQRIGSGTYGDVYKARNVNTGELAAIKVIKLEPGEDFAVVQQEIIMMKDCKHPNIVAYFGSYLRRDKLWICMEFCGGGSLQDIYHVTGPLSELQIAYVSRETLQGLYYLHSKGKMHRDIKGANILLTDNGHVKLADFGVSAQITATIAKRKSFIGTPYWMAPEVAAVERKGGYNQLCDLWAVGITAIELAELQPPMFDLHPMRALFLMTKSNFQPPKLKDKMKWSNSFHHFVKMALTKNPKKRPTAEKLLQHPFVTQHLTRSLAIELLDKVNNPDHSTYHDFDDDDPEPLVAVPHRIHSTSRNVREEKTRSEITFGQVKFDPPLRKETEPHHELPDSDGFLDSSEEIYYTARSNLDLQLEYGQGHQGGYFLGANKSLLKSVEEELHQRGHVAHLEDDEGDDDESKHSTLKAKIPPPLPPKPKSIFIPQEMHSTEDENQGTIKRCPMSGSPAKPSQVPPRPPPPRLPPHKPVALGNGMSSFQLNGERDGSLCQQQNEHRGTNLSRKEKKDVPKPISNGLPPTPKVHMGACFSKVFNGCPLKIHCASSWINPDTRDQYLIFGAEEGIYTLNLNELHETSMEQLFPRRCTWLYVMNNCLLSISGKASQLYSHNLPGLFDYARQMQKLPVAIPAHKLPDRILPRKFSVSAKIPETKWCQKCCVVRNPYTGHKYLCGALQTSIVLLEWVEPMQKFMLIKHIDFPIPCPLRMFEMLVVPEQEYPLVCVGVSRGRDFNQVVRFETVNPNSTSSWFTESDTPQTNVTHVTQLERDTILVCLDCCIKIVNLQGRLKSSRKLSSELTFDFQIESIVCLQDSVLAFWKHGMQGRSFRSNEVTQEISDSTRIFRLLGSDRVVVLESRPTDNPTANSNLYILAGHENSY
Conditions: MAP4K3, 1 μM; read-out: % control. As to the method: as §1, §2

Experiment [4] deals with MAST1 (Homo sapiens, UniProt Q9Y2H9). The settings on record: MAST1, 1 μM; read-out: % control. The procedure: as §1, §2
MAST1, sequence (Q9Y2H9 whole entry): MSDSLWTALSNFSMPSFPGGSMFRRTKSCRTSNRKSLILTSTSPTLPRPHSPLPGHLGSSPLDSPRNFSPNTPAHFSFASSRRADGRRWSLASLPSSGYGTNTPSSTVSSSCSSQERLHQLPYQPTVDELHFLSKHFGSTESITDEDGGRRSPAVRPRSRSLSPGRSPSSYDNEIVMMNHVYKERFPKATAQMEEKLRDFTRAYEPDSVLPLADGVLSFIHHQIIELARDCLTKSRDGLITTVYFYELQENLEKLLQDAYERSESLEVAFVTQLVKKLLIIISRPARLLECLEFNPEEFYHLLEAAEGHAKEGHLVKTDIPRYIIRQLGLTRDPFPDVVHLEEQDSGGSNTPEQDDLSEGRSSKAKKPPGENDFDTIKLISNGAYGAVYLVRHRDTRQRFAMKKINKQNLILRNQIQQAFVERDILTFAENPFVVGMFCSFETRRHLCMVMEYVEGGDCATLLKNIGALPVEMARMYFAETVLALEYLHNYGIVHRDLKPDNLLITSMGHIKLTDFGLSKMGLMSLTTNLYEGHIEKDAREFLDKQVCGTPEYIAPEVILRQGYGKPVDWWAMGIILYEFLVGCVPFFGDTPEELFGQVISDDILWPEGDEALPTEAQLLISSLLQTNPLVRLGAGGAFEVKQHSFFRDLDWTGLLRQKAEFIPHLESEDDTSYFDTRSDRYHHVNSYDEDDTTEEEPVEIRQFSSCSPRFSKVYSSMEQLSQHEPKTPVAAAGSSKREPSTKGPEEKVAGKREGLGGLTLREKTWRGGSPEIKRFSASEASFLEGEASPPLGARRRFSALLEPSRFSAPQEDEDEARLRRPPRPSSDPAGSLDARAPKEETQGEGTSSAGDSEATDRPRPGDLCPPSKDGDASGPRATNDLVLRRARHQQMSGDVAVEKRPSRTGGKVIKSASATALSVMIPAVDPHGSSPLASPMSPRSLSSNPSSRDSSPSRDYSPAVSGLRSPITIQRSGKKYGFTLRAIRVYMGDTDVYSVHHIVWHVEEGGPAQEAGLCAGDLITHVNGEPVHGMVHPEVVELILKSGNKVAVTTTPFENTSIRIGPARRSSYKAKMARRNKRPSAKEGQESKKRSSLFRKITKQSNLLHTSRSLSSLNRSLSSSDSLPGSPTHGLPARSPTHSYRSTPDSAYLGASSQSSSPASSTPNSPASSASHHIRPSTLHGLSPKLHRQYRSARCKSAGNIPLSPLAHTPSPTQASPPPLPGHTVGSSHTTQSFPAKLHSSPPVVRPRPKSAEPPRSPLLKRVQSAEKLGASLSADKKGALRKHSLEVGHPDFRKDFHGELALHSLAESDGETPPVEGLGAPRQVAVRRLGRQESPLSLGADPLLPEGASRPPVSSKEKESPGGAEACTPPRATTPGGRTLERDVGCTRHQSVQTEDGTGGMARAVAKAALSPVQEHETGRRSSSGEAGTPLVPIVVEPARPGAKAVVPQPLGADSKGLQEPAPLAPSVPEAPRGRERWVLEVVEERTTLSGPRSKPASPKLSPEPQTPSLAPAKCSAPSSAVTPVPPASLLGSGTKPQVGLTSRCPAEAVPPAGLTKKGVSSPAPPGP
Experiment [5] has as its target T3, IKK-alpha (Homo sapiens, UniProt O15111).
T3 sequence (O15111 1-745): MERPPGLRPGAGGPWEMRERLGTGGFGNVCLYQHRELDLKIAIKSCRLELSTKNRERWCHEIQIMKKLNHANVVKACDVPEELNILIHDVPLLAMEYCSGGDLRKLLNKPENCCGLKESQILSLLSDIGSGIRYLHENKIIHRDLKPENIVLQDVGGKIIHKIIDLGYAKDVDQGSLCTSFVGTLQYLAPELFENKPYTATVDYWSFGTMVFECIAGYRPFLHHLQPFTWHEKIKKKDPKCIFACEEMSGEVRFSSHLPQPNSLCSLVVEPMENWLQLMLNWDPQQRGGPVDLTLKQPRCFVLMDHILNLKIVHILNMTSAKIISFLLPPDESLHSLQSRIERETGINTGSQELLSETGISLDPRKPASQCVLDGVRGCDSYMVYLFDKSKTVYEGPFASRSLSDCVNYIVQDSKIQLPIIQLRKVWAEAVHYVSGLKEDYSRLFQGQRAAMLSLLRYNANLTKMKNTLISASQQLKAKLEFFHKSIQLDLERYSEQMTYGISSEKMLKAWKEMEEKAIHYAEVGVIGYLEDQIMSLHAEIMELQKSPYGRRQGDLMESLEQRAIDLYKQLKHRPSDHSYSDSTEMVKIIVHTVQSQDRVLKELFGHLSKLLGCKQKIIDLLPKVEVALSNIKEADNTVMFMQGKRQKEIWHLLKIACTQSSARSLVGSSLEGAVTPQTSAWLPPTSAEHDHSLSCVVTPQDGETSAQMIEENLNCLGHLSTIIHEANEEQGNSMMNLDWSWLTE
Conditions: read-out: % control. The procedure: as §1, §2

In experiment [6] the target is FLT1 (Homo sapiens, UniProt P17948). Conditions: FLT1, 1 μM; read-out: % control. The procedure: as §1, §2
FLT1, sequence (P17948 27-1338): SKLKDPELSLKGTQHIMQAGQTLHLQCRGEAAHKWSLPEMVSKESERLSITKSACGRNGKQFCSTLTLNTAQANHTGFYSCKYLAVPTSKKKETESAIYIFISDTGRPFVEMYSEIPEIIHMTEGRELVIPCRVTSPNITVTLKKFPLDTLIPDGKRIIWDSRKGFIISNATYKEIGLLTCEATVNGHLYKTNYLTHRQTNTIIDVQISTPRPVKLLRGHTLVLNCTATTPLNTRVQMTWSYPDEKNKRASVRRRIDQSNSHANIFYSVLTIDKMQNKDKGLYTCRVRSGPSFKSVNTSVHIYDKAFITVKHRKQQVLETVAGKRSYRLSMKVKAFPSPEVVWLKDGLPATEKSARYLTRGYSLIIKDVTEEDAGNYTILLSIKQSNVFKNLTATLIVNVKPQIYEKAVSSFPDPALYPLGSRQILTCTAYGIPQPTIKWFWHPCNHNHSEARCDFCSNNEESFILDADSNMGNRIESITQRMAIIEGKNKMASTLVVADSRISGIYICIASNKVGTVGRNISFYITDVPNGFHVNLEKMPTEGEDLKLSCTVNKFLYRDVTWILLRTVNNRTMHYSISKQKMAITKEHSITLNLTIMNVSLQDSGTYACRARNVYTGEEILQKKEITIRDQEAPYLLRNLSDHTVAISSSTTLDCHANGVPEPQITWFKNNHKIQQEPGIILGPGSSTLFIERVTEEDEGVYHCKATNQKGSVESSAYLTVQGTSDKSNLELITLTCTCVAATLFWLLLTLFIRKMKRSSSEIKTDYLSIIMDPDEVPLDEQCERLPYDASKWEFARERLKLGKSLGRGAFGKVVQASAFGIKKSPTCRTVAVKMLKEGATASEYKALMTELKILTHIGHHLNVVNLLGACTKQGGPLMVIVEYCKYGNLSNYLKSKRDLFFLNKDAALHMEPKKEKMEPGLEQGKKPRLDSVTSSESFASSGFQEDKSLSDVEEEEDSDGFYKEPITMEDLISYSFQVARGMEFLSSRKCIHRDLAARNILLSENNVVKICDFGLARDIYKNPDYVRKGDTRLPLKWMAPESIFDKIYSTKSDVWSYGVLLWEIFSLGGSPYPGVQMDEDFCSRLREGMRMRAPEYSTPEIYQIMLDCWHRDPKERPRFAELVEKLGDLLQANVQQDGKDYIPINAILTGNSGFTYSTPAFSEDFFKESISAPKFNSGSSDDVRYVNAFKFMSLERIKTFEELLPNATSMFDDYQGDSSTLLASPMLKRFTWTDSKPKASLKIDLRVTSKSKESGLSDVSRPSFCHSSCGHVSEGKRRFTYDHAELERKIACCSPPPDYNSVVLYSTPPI
For experiment [7], the target named is MKNK1 (Homo sapiens, UniProt Q9BUB5). Conditions: MKNK1, 1 μM; read-out: % control. As to the method: as §1, §2
MKNK1, sequence (Q9BUB5 whole entry): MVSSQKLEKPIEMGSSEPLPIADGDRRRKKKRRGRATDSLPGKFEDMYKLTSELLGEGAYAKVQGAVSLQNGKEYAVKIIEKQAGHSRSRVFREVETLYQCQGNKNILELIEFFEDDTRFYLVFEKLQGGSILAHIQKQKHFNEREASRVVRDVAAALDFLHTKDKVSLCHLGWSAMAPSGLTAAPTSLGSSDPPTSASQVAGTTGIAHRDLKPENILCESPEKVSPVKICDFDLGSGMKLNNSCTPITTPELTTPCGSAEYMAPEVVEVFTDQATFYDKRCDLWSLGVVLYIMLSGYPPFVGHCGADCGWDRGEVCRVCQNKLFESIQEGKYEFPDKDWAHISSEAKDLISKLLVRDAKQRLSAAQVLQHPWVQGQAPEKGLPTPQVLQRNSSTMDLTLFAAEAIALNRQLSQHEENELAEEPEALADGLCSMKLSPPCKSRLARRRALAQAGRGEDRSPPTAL

Molecules are shown by their SMILES.

NEK6, sequence (Q9HC98 whole entry): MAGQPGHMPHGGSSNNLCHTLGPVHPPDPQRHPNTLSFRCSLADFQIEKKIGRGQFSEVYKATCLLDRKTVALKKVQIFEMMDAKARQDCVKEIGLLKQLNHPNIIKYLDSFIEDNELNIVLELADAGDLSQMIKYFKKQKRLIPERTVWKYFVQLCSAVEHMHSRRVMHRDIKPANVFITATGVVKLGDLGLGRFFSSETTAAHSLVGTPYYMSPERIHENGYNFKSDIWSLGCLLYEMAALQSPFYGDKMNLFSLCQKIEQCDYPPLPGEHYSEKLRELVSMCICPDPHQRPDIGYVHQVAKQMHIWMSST
T1 sequence (P51812 422-679 limits assumed): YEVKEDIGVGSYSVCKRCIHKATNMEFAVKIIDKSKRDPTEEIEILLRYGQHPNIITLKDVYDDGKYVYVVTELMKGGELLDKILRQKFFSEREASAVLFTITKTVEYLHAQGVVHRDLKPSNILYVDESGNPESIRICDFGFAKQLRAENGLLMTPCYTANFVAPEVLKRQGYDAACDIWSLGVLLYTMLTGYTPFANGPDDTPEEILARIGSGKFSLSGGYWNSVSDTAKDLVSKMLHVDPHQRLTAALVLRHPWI

Take `CNc1c(-c2ccc(C(=O)N3CCC(N4CCOCC4)CC3)cc2)cnc2[nH]cc(Cl)c12` [Compound 96, (4-(3-chloro-4-(methylamino)-1H-pyrrolo[2,3-b]pyridin-5-yl)phenyl)(4-morpholinopiperidin-1-yl)methanone]: the remaining binding at 1 µM in experiment [1] was determined as 88%; in experiment [2], 97%; in experiment [3], 83%; in experiment [4], 24%; in experiment [5], 14%; in experiment [6], 33%. Moreover, the remaining binding at 1 µM in experiment [7] was determined as 100%.
`O=C(c1ccc(-c2cnc3[nH]cc(Cl)c3c2NC2CCCC2)cc1)N1CCC(N2CCOCC2)CC1` [Compound 101, (4-(3-chloro-4-(cyclopentylamino)-1H-pyrrolo[2,3-b]pyridin-5-yl)phenyl)(4-morpholinopiperidin-1-yl)methanone]: the remaining binding at 1 µM turned out to be 100% in experiment [1]; 83% in experiment [2]; 74% in experiment [3]; 70% in experiment [4]; 49% in experiment [5]; 51% in experiment [6]. In addition, in experiment [7], the remaining binding at 1 µM worked out at 100%.
Turning to `CNc1c(-c2cnn([C@H]3CCN(C(C)=O)C[C@@H]3F)c2)cnc2[nH]cc(Cl)c12` [Compound 77, 1-((3S,4S)-4-(4-(3-chloro-4-(methylamino)-1H-pyrrolo[2,3-b]pyridin-5-yl)-1H-pyrazol-1-yl)-3-fluoropiperidin-1-yl)ethan-1-one], the remaining binding at 1 µM is 92% in experiment [1]; 98% in experiment [2]; 94% in experiment [3]; 50% in experiment [4]; 17% in experiment [5]; 21% in experiment [6]. Besides, the remaining binding at 1 µM in experiment [7] came out at 97%.
